Values of other authors as cited in PubChem BioAssay AID1259409 (Chemical Carcinogenesis Research Information System (CCRIS), 2018).

Tested on: rodent chemically induced tumor inhibition, incidence and multiplicity
Test: CCRIS tumor inhibitor studies
Settings: Promoter: NONE USED

CC1=C(/C=C/C(C)=C/C=C/C(C)=C/C=C/C=C(C)/C=C/C=C(C)/C=C/C2=C(C)C(=O)CCC2(C)C)C(C)(C)CCC1=O
tumour outcome (control, treated, inhibition, significance) (Carcinogen: 4-NITROQUINOLINE-1-OXIDE, 56-57-5, Dose [Inhibitor]: 0, 100 PPM IN DIET FOR 10 WK BEGINNING PRIOR TO CARCINOGEN TREATMENT (STUDY DURATION: 32 WK), Route [Inhibitor]: ORAL, Species: RAT, Strain/Sex: F344/MALE, Target Tissue: Type of Lesion: TONGUE: PAPILLOMA, Dose [Carcinogen]: 20 PPM IN DRINKING WATER FOR 8 WK): 4/24 (17%), 0/17 (0%), 100%, p<0.05 | tumour outcome (control, treated, inhibition, significance) (Carcinogen: 4-NITROQUINOLINE-1-OXIDE, 56-57-5, Dose [Inhibitor]: 0, 100 PPM IN DIET FOR 10 WK BEGINNING PRIOR TO CARCINOGEN TREATMENT (STUDY DURATION: 32 WK), Route [Inhibitor]: ORAL, Species: RAT, Strain/Sex: F344/MALE, Target Tissue: Type of Lesion: TONGUE: SQUAMOUS CELL CARCINOMA, Dose [Carcinogen]: 20 PPM IN DRINKING WATER FOR 8 WK): 13/24 (54%), 0/17 (0%), 100%, p<0.05 | tumour outcome (control, treated, inhibition, significance) (Carcinogen: 4-NITROQUINOLINE-1-OXIDE, 56-57-5, Dose [Inhibitor]: 0, 100 PPM IN DIET FOR 22 WK BEGINNING 1 WK POST CARCINOGEN TREATMENT (STUDY DURATION: 32 WK), Route [Inhibitor]: ORAL, Species: RAT, Strain/Sex: F344/MALE, Target Tissue: Type of Lesion: TONGUE: PAPILLOMA, Dose [Carcinogen]: 20 PPM IN DRINKING WATER FOR 8 WK): 4/24 (17%), 1/19 (5%), 71%, p<0.05 | tumour outcome (control, treated, inhibition, significance) (Carcinogen: 4-NITROQUINOLINE-1-OXIDE, 56-57-5, Dose [Inhibitor]: 0, 100 PPM IN DIET FOR 22 WK BEGINNING 1 WK POST CARCINOGEN TREATMENT (STUDY DURATION: 32 WK), Route [Inhibitor]: ORAL, Species: RAT, Strain/Sex: F344/MALE, Target Tissue: Type of Lesion: TONGUE: SQUAMOUS CELL CARCINOMA, Dose [Carcinogen]: 20 PPM IN DRINKING WATER FOR 8 WK): 13/24 (54%), 1/19 (5%), 91%, p<0.05 | tumour outcome (control, treated, inhibition, significance) (Carcinogen: 7,12-DIMETHYLBENZ[A]ANTHRACENE, 57-97-6, Dose [Inhibitor]: 0, 1130 MG/KG OF DIET FROM DAY 34 TO 54 OF AGE (STUDY DURATION: 200 D), Route [Inhibitor]: ORAL, Species: RAT, Strain/Sex: SPRAGUE-DAWLEY/FEMALE, Target Tissue: Type of Lesion: MAMMARY GLAND: ADENOCARCINOMA, Dose [Carcinogen]: 15 MG/RAT ONCE AT 55 D OF AGE): 93%, 80%, 14%, not significant | tumour outcome (control, treated, inhibition, significance) (Carcinogen: 7,12-DIMETHYLBENZ[A]ANTHRACENE, 57-97-6, Dose [Inhibitor]: 0, 1130 MG/KG OF DIET FROM DAY 34 TO 54 OF AGE (STUDY DURATION: 200 D), Route [Inhibitor]: ORAL, Species: RAT, Strain/Sex: SPRAGUE-DAWLEY/FEMALE, Target Tissue: Type of Lesion: MAMMARY GLAND: BENIGN TUMORS, Dose [Carcinogen]: 15 MG/RAT ONCE AT 55 D OF AGE): 28%, 30%, -7%, not calculated | tumour outcome (control, treated, inhibition, significance) (Carcinogen: 7,12-DIMETHYLBENZ[A]ANTHRACENE, 57-97-6, Dose [Inhibitor]: 0, 3390 MG/KG OF DIET FROM DAY 34 TO 54 OF AGE (STUDY DURATION: 200 D), Route [Inhibitor]: ORAL, Species: RAT, Strain/Sex: SPRAGUE-DAWLEY/FEMALE, Target Tissue: Type of Lesion: MAMMARY GLAND: ADENOCARCINOMA, Dose [Carcinogen]: 15 MG/RAT ONCE AT 55 D OF AGE): 93%, 67%, 28%, p<0.05 | tumour outcome (control, treated, inhibition, significance) (Carcinogen: 7,12-DIMETHYLBENZ[A]ANTHRACENE, 57-97-6, Dose [Inhibitor]: 0, 3390 MG/KG OF DIET FROM DAY 34 TO 54 OF AGE (STUDY DURATION: 200 D), Route [Inhibitor]: ORAL, Species: RAT, Strain/Sex: SPRAGUE-DAWLEY/FEMALE, Target Tissue: Type of Lesion: MAMMARY GLAND: BENIGN TUMORS, Dose [Carcinogen]: 15 MG/RAT ONCE AT 55 D OF AGE): 28%, 40%, -43%, not calculated | tumour outcome (control, treated, inhibition, significance) (Carcinogen: 7,12-DIMETHYLBENZ[A]ANTHRACENE, 57-97-6, Dose [Inhibitor]: 140 UG (1.5 MG/KG BW) IN 0.4 ML MINERAL OIL 3/WK FOR 28 WK (STUDY DURATION: 28 WK), Route [Inhibitor]: ORAL, Species: HAMSTER, Strain/Sex: SYRIAN/MALE, Target Tissue: Type of Lesion: SKIN: CARCINOMA, Dose [Carcinogen]: 0.1% IN HEAVY MINERAL OIL APPLIED TO BUCCAL POUCH 3/WK FOR 28 WK): 20/20 (100%), 2/20 (10%), 90%, not calculated | tumour outcome (control, treated, inhibition, significance) (Carcinogen: 7,12-DIMETHYLBENZ[A]ANTHRACENE, 57-97-6, Dose [Inhibitor]: 250 MG/KG IN DIET FOR 6 WK PRIOR TO CARCINOGEN DOSE AND CONTINUING FOR 21-22 WK POST CARCINOGEN DOSE (STUDY DURATION: 28, Route [Inhibitor]: ORAL, Species: RAT, Strain/Sex: SPRAGUE-DAWLEY/MALE, Target Tissue: Type of Lesion: SALIVARY GLAND: TUMOR, Dose [Carcinogen]: 1 MG IN 20 µL OLIVE OIL INJECTED INTO SUBMANDIBULAR GLAND ONCE): 20/28 (71%), 21/30 (70%), 1%, not significant | tumour outcome (control, treated, inhibition, significance) (Carcinogen: BENZO[A]PYRENE, 50-32-8, Dose [Inhibitor]: 0, 4.7 MICROMOLAR/D IN 0.1 ML PEANUT OIL BEGINNING 2 WK PRIOR TO CARCINOGEN TREATMENT AND CONTINUING TO 2 WK POST CARCIN, Route [Inhibitor]: GAVAGE, Species: MOUSE, Strain/Sex: SWISS/FEMALE, Target Tissue: Type of Lesion: FORESTOMACH: TUMOR, Dose [Carcinogen]: 1 MG 2/WK IN 0.1 ML PEANUT OIL FOR 4 WK): 20/20 (100%), 4/20 (20%), 80%, p<0.001 | tumour outcome (control, treated, inhibition, significance) (Carcinogen: N-BUTYL-N-(4-HYDROXYBUTYL)NITROSAMINE, 3817-11-6, Dose [Inhibitor]: 0, 0.1% IN DIET BEGINNING 5 WK PRIOR TO CARCINOGEN TREATMENT AND CONTINUING FOR DURATION OF STUDY (STUDY DURATION: 7 MO), Route [Inhibitor]: ORAL, Species: MOUSE, Strain/Sex: B6D2F1/MALE, Target Tissue: Type of Lesion: BLADDER: CARCINOMA IN SITU, Dose [Carcinogen]: 5 MG IN SALINE SOLUTION 2/WK FOR 9 WK): 7/24 (29%), 5/24 (21%), 28%, not calculated | tumour outcome (control, treated, inhibition, significance) (Carcinogen: N-BUTYL-N-(4-HYDROXYBUTYL)NITROSAMINE, 3817-11-6, Dose [Inhibitor]: 0, 0.1% IN DIET BEGINNING 5 WK PRIOR TO CARCINOGEN TREATMENT AND CONTINUING FOR DURATION OF STUDY (STUDY DURATION: 7 MO), Route [Inhibitor]: ORAL, Species: MOUSE, Strain/Sex: B6D2F1/MALE, Target Tissue: Type of Lesion: BLADDER: TRANSITIONAL CELL CARCINOMA, Dose [Carcinogen]: 5 MG IN SALINE SOLUTION 2/WK FOR 9 WK): 8/24 (33%), 10/24 (42%), -27%, not calculated | tumour outcome (control, treated, inhibition, significance) (Carcinogen: N-BUTYL-N-(4-HYDROXYBUTYL)NITROSAMINE, 3817-11-6, Dose [Inhibitor]: 0, 0.1% IN DIET BEGINNING 5 WK PRIOR TO CARCINOGEN TREATMENT AND CONTINUING FOR DURATION OF STUDY (STUDY DURATION: 7 MO), Route [Inhibitor]: ORAL, Species: MOUSE, Strain/Sex: B6D2F1/MALE, Target Tissue: Type of Lesion: BLADDER: TUMOR, Dose [Carcinogen]: 5 MG IN SALINE SOLUTION 2/WK FOR 9 WK): 15/24 (63%), 15/24 (63%), 0%, not significant | tumour outcome (control, treated, inhibition, significance) (Carcinogen: N-BUTYL-N-(4-HYDROXYBUTYL)NITROSAMINE, 3817-11-6, Dose [Inhibitor]: 0, 50 PPM IN DRINKING WATER FOR 2O WK BEGINNING 1 WK POST CARCINOGEN TREATMENT (STUDY DURATION: 41 WK), Route [Inhibitor]: ORAL, Species: MOUSE, Strain/Sex: ICR/MALE, Target Tissue: Type of Lesion: URINARY BLADDER: CARCINOMA, Dose [Carcinogen]: 250 PPM IN DRINKING WATER FOR 20 WK): 15/36 (42%), 10/31 (33%), 21%, not significant | tumour outcome (control, treated, inhibition, significance) (Carcinogen: N-BUTYL-N-(4-HYDROXYBUTYL)NITROSAMINE, 3817-11-6, Dose [Inhibitor]: 0, 50 PPM IN DRINKING WATER FOR 20 WK BEGINNING 1 WK POST CARCINOGEN TREATMENT (STUDY DURATION: 41 WK), Route [Inhibitor]: ORAL, Species: MOUSE, Strain/Sex: ICR/MALE, Target Tissue: Type of Lesion: URINARY BLADDER: PAPILLOMA, Dose [Carcinogen]: 250 PPM IN DRINKING WATER FOR 20 WK): 2/36 (6%), 3/31 (10%), -67%, not significant | tumour outcome (control, treated, inhibition, significance) (Carcinogen: N-METHYL-N-NITROSOUREA, 684-93-5, Dose [Inhibitor]: 0, 1130 MG/KG OF DIET BEGINNING 2 D POST CARCINOGEN DOSE AND CONTINUING FOR DURATION OF STUDY (STUDY DURATION: 90 D), Route [Inhibitor]: ORAL, Species: RAT, Strain/Sex: SPRAGUE-DAWLEY/FEMALE, Target Tissue: Type of Lesion: MAMMARY GLAND: ADENOCARCINOMA, Dose [Carcinogen]: 45 MG/KG BW ONCE AT 50 D OF AGE): 100%, 100%, 0%, not significant | tumour outcome (control, treated, inhibition, significance) (Carcinogen: N-METHYL-N-NITROSOUREA, 684-93-5, Dose [Inhibitor]: 0, 3390 MG/KG OF DIET BEGINNING 2 D POST CARCINOGEN DOSE AND CONTINUING FOR DURATION OF STUDY (STUDY DURATION: 90 D), Route [Inhibitor]: ORAL, Species: RAT, Strain/Sex: SPRAGUE-DAWLEY/FEMALE, Target Tissue: Type of Lesion: MAMMARY GLAND: ADENOCARCINOMA, Dose [Carcinogen]: 45 MG/KG BW ONCE AT 50 D OF AGE): 100%, 90%, 10%, not calculated
